Tests used:
[1] = system: γH2AX/H2AX levels in MEF cells; assay: γH2AX level determination by western blot; type: cell-based, mouse; conditions: 48 h, EX-527 10 μM, S1th 10 30 μM, S1th 12 20 μM, S1th 13 12 μM, SirReal2 30 μM
Description: Sirt1 WT and KO MEFS cells were treated with 10 μM EX-527, 12 μM S1th 13 (6), 20 μM S1th 12 (5), 30 μM S1th 10 (7) and 30 μM SirReal2 [Sirt2 inhibitor, synthesized according to ([62])] for 48 h. Oxidative stress was induced using 10 μM Camptothecin 2 h. Whole-cell extracts were performed according to the Dignam protocol ([63]). Primary antibodies used for the western blot were anti-H2AX and anti-γH2AX (ab11175 and ab2893 resp., Abcam, UK). Densiometric analysis of the western blots was performed with Quantity One software (Bio-Rad Laboratories, Inc., USA).

[2] = system: HeLa cells; assay: Cell proliferation assay with HeLa cells; type: cell-based, human; conditions: EX-527 20 μM, S1th 13 12 μM, S1th 12 20 μM, S1th 10 30 μM; up to 120 h
Description: 1.5 × 10^4 cells/well were seeded in 24-well plates and grown in DMEM 10% in presence of DMSO, 20 μM EX-527, 12 μM S1th 13, 20 μM S1th 12, or 30 μM S1th 10. The growth media containing the drugs was replaced every 48 h. Cells were collected and counted at the indicated times starting 24 h after seeding (0, 24, 48, 72, 96, and 120 h). The experiment was performed twice in duplicates.

[3] = system: HeLa cells; assay: Colony forming assay with HeLa cells; type: cell-based, human; conditions: 7–10 days; concentrations as in proliferation assay
Description: For colony assays, 50 cells per well were seeded in 6-well plates and grown in the same conditions with the same drug concentrations as for the proliferation assays. In this case, the growth media containing the drugs was replaced every 48 h. After 7–10 days, when isolated colonies were formed, wells were washed with PBS, and cells were fixed with cold methanol for 5 min at RT. Cells were stained with crystal violet for 10 min at RT and washed with H2O. Images were acquired using iBright (Thermo Fisher Scientific, MA, USA). For quantification, cells of each well were resuspended in 10% glacial acetic acid to dissolve crystal violet whose levels were monitored by measuring absorbance at 590 nm. The experiment was performed in duplicates.

[4] = system: H3K9ac and p53K382ac in HeLa cells; assay: Analysis of acetylation status in HeLa cells by western blotting; type: cell-based, human; conditions: 48 h; concentrations as in proliferation assay
Description: 5 × 10^4 cells were plated in 6-well plates and grown with the conditions and drug concentrations as described for the proliferation assay. Cells were harvested at 48 h and resuspendend in protein loading buffer. After sonication the samples were centrifuged at 14,000 rpm in an Eppendorf microcentrifuge (Eppendorf, DE) and the supernatants were analyzed by western-blot. The following antibodies were used: histone H3 (Cell Signaling #9715), histone H3K9ac (Cell Signaling # C5B11), GAPDH (Cell Signaling #D16H11), p53 (ThermoFisher #PA527822), and p53K382ac (Abcam 75754). Quantification was carried out using imageJ.

`N#CSc1cccc(NC(=O)[C@H]2CC=CC[C@H]2C(=O)O)c1` [S1th 10] was tested, and the “γH2AX/H2AX levels without Camptothecin” value [1] was “decreased”, the “cell proliferation of HeLa cells” value [2] was “significantly decreased cell proliferation” and the “colony forming of HeLa cells” value [3] was “only mild effects”. The “H3K9 acetylation in HeLa cells” value [4] was “clear effect on acetylation” and the “p53K382 acetylation in HeLa cells” value [4] was “clear effect on acetylation”.

`COc1ccc(SC#N)cc1OCC(=O)N(CCC#N)CCC#N` [S1th 12] was tested, and the “γH2AX/H2AX levels without Camptothecin” value [1] was “decreased”, the “cell proliferation of HeLa cells” value [2] was “only showed a mild effect” and the “colony forming of HeLa cells” value [3] was “only mild effects”. For the same compound, the “H3K9 acetylation in HeLa cells” value [4] was “clear effect on acetylation” and the “p53K382 acetylation in HeLa cells” value [4] was “clear effect on acetylation”.

In the case of `N#CSc1cccc(NS(=O)(=O)c2ccc3c(c2)OCCO3)c1` [S1th 13], the “γH2AX/H2AX levels without Camptothecin” value [1] is reported as “decreased”, the “cell proliferation of HeLa cells” value [2] is reported as “significantly decreased cell proliferation” and the “colony forming of HeLa cells” value [3] is reported as “almost as potent as EX-527”. For the same compound, the “H3K9 acetylation in HeLa cells” value [4] was “clear effect on acetylation” and the “p53K382 acetylation in HeLa cells” value [4] was “clear effect on acetylation”.

From publication PMC7203344, “Sirtuin 1 Inhibiting Thiocyanates (S1th)—A New Class of Isotype Selective Inhibitors of NAD^+ Dependent Lysine Deacetylases” (Frontiers in Oncology, 2020)
